Laboratory results taken from the supplement of paper PMC10307832.

What was measured:
Test in all cases: relative viability (nuclei count vs DMSO), 5 days (fraction); higher = more cells survive
ABC-1 = tested on: ABC-1
How it was run: (§1)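 One day after seeding in 1536-well plates, lung cancer cell lines were dosed by pin tool. Dosing was either single-drug or a fixed anchor-drug dose plus five library-drug doses (not always all listed) in √10 steps. After 5 days, nuclei were stained in one fix-and-stain step and counted on 4× images, and relative viability is the nuclei count of treated wells over that of vehicle wells, given as the median of duplicate plates.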

CAL-12T = tested on: CAL-12T
How it was run: as §1

ChaGo-K-1 = tested on: ChaGo-K-1
How it was run: as §1

HCC-44 = tested on: HCC-44
How it was run: as §1

HCC-827 = tested on: HCC-827
How it was run: as §1

LCLC-103H = tested on: LCLC-103H
How it was run: as §1

LU99A = tested on: LU99A
How it was run: as §1

LXF-289 = tested on: LXF-289
How it was run: as §1

NCI-H1395 = tested on: NCI-H1395
How it was run: as §1

NCI-H1666 = tested on: NCI-H1666
How it was run: as §1

NCI-H1755 = tested on: NCI-H1755
How it was run: as §1

NCI-H1792 = tested on: NCI-H1792
How it was run: as §1

NCI-H1793 = tested on: NCI-H1793
How it was run: as §1

NCI-H1944 = tested on: NCI-H1944
How it was run: as §1

NCI-H2126 = tested on: NCI-H2126
How it was run: as §1

NCI-H2347 = tested on: NCI-H2347
How it was run: as §1

NCI-H3122 = tested on: NCI-H3122
How it was run: as §1

NCI-H322M = tested on: NCI-H322M
How it was run: as §1

NCI-H358 = tested on: NCI-H358
How it was run: as §1

NCI-H520 = tested on: NCI-H520
How it was run: as §1

RERF-LC-KJ = tested on: RERF-LC-KJ
How it was run: as §1

SK-LU-1 = tested on: SK-LU-1
How it was run: as §1

## CCNC(=O)c1noc(-c2cc(C(C)C)c(O)cc2O)c1-c1ccc(CN2CCOCC2)cc1 [Luminespib] + O=C(c1cc(Cc2n[nH]c(=O)c3ccccc23)ccc1F)N1CCN(C(=O)C2CC2)CC1 [Olaparib] (partner 8 µM)
ABC-1; first compound 0.002 µM
  relative viability: 0.928
ABC-1; first compound 0.006325 µM
  relative viability: 1.02
ABC-1; first compound 0.02 µM
  relative viability: 0.526
ABC-1; first compound 0.06325 µM
  relative viability: 0.337
ABC-1; first compound 0.2 µM
  relative viability: 0.244
CAL-12T; first compound 0.002 µM
  relative viability: 0.671
CAL-12T; first compound 0.006325 µM
  relative viability: 0.679
CAL-12T; first compound 0.02 µM
  relative viability: 0.959
CAL-12T; first compound 0.06325 µM
  relative viability: 0.136
CAL-12T; first compound 0.2 µM
  relative viability: 0.182
ChaGo-K-1; first compound 0.002 µM
  relative viability: 0.42
ChaGo-K-1; first compound 0.006325 µM
  relative viability: 0.407
ChaGo-K-1; first compound 0.02 µM
  relative viability: 0.439
ChaGo-K-1; first compound 0.06325 µM
  relative viability: 0.452
ChaGo-K-1; first compound 0.2 µM
  relative viability: 0.36
HCC-44; first compound 0.002 µM
  relative viability: 0.981
HCC-44; first compound 0.006325 µM
  relative viability: 0.952
HCC-44; first compound 0.02 µM
  relative viability: 1.07
HCC-44; first compound 0.06325 µM
  relative viability: 0.944
HCC-44; first compound 0.2 µM
  relative viability: 0.52
HCC-827; first compound 0.002 µM
  relative viability: 0.595
HCC-827; first compound 0.006325 µM
  relative viability: 0.64
HCC-827; first compound 0.02 µM
  relative viability: 0.537
HCC-827; first compound 0.06325 µM
  relative viability: 0.143
HCC-827; first compound 0.2 µM
  relative viability: 0.167
LCLC-103H; first compound 0.002 µM
  relative viability: 0.76
LCLC-103H; first compound 0.006325 µM
  relative viability: 0.73
LCLC-103H; first compound 0.02 µM
  relative viability: 0.78
LCLC-103H; first compound 0.06325 µM
  relative viability: 0.681
LCLC-103H; first compound 0.2 µM
  relative viability: 0.809
LU99A; first compound 0.002 µM
  relative viability: 0.294
LU99A; first compound 0.006325 µM
  relative viability: 0.236
LU99A; first compound 0.02 µM
  relative viability: 0.226
LU99A; first compound 0.06325 µM
  relative viability: 0.174
LU99A; first compound 0.2 µM
  relative viability: 0.138
LXF-289; first compound 0.002 µM
  relative viability: 1.01
LXF-289; first compound 0.006325 µM
  relative viability: 1.03
LXF-289; first compound 0.02 µM
  relative viability: 1.2
LXF-289; first compound 0.06325 µM
  relative viability: 0.99
LXF-289; first compound 0.2 µM
  relative viability: 0.805
NCI-H1395; first compound 0.002 µM
  relative viability: 0.465
NCI-H1395; first compound 0.006325 µM
  relative viability: 0.454
NCI-H1395; first compound 0.02 µM
  relative viability: 0.427
NCI-H1395; first compound 0.06325 µM
  relative viability: 0.403
NCI-H1395; first compound 0.2 µM
  relative viability: 0.383
NCI-H1666; first compound 0.002 µM
  relative viability: 0.778
NCI-H1666; first compound 0.006325 µM
  relative viability: 0.733
NCI-H1666; first compound 0.02 µM
  relative viability: 0.753
NCI-H1666; first compound 0.06325 µM
  relative viability: 0.75
NCI-H1666; first compound 0.2 µM
  relative viability: 0.716
NCI-H1755; first compound 0.002 µM
  relative viability: 0.917
NCI-H1755; first compound 0.006325 µM
  relative viability: 0.808
NCI-H1755; first compound 0.02 µM
  relative viability: 0.759
NCI-H1755; first compound 0.06325 µM
  relative viability: 0.817
NCI-H1755; first compound 0.2 µM
  relative viability: 0.794
NCI-H1792; first compound 0.002 µM
  relative viability: 0.4
NCI-H1792; first compound 0.006325 µM
  relative viability: 0.298
NCI-H1792; first compound 0.02 µM
  relative viability: 0.271
NCI-H1792; first compound 0.06325 µM
  relative viability: 0.0723
NCI-H1792; first compound 0.2 µM
  relative viability: 0.0503
NCI-H1793; first compound 0.002 µM
  relative viability: 0.999
NCI-H1793; first compound 0.006325 µM
  relative viability: 0.975
NCI-H1793; first compound 0.02 µM
  relative viability: 0.7
NCI-H1793; first compound 0.06325 µM
  relative viability: 0.117
NCI-H1793; first compound 0.2 µM
  relative viability: 0.167
NCI-H1944; first compound 0.002 µM
  relative viability: 0.445
NCI-H1944; first compound 0.006325 µM
  relative viability: 0.394
NCI-H1944; first compound 0.02 µM
  relative viability: 0.364
NCI-H1944; first compound 0.06325 µM
  relative viability: 0.418
NCI-H1944; first compound 0.2 µM
  relative viability: 0.33
NCI-H2126; first compound 0.002 µM
  relative viability: 0.924
NCI-H2126; first compound 0.006325 µM
  relative viability: 0.887
NCI-H2126; first compound 0.06325 µM
  relative viability: 0.899
NCI-H2126; first compound 0.2 µM
  relative viability: 0.903
NCI-H2347; first compound 0.002 µM
  relative viability: 0.631
NCI-H2347; first compound 0.006325 µM
  relative viability: 0.617
NCI-H2347; first compound 0.02 µM
  relative viability: 0.7
NCI-H2347; first compound 0.06325 µM
  relative viability: 0.408
NCI-H2347; first compound 0.2 µM
  relative viability: 0.296
NCI-H3122; first compound 0.002 µM
  relative viability: 0.626
NCI-H3122; first compound 0.006325 µM
  relative viability: 0.567
NCI-H3122; first compound 0.02 µM
  relative viability: 0.68
NCI-H3122; first compound 0.06325 µM
  relative viability: 0.56
NCI-H3122; first compound 0.2 µM
  relative viability: 0.646
NCI-H322M; first compound 0.002 µM
  relative viability: 0.799
NCI-H322M; first compound 0.006325 µM
  relative viability: 0.738
NCI-H322M; first compound 0.02 µM
  relative viability: 0.729
NCI-H322M; first compound 0.06325 µM
  relative viability: 0.344
NCI-H322M; first compound 0.2 µM
  relative viability: 0.439
NCI-H358; first compound 0.002 µM
  relative viability: 0.637
NCI-H358; first compound 0.006325 µM
  relative viability: 0.655
NCI-H358; first compound 0.02 µM
  relative viability: 0.577
NCI-H358; first compound 0.06325 µM
  relative viability: 0.0817
NCI-H358; first compound 0.2 µM
  relative viability: 0.0712
NCI-H520; first compound 0.002 µM
  relative viability: 0.361
NCI-H520; first compound 0.006325 µM
  relative viability: 0.302
NCI-H520; first compound 0.02 µM
  relative viability: 0.227
NCI-H520; first compound 0.06325 µM
  relative viability: 0.139
NCI-H520; first compound 0.2 µM
  relative viability: 0.112
RERF-LC-KJ; first compound 0.002 µM
  relative viability: 0.857
RERF-LC-KJ; first compound 0.006325 µM
  relative viability: 0.934
RERF-LC-KJ; first compound 0.02 µM
  relative viability: 0.49
RERF-LC-KJ; first compound 0.06325 µM
  relative viability: 0.235
RERF-LC-KJ; first compound 0.2 µM
  relative viability: 0.212
SK-LU-1; first compound 0.002 µM
  relative viability: 0.538
SK-LU-1; first compound 0.006325 µM
  relative viability: 0.4
SK-LU-1; first compound 0.02 µM
  relative viability: 0.475
SK-LU-1; first compound 0.06325 µM
  relative viability: 0.187
SK-LU-1; first compound 0.2 µM
  relative viability: 0.179
